From US8071287B2, “Pharmaceutical and therapeutic applications relating to a type 9 adenylyl cyclase Polymorphism in asthma and reversible bronchial obstruction” (priority 2005, dated 2011)
Substitutions are numbered along the chain they refer to. One block for each molecule: values may come before it.

Key:
Met772 AC9 = target: T1, Met772 AC9 (Homo sapiens, UniProt O60503, I772M); assay: Adenylyl cyclase activities in membranes of A431 cells transfected with Met772 AC9; type: biochemical; settings: 10 μM albuterol; for stimulated adenylyl cyclase activities of Met772 compared to WT: no corticosteroid, 1.8 mM MnCl2 or 10 mM NaF; for albuterol stimulated adenylyl cyclase activities: Met772 cells, N=5
T1 construct: expressed in transfected cells
T1 sequence (O60503 1-1353 I772M): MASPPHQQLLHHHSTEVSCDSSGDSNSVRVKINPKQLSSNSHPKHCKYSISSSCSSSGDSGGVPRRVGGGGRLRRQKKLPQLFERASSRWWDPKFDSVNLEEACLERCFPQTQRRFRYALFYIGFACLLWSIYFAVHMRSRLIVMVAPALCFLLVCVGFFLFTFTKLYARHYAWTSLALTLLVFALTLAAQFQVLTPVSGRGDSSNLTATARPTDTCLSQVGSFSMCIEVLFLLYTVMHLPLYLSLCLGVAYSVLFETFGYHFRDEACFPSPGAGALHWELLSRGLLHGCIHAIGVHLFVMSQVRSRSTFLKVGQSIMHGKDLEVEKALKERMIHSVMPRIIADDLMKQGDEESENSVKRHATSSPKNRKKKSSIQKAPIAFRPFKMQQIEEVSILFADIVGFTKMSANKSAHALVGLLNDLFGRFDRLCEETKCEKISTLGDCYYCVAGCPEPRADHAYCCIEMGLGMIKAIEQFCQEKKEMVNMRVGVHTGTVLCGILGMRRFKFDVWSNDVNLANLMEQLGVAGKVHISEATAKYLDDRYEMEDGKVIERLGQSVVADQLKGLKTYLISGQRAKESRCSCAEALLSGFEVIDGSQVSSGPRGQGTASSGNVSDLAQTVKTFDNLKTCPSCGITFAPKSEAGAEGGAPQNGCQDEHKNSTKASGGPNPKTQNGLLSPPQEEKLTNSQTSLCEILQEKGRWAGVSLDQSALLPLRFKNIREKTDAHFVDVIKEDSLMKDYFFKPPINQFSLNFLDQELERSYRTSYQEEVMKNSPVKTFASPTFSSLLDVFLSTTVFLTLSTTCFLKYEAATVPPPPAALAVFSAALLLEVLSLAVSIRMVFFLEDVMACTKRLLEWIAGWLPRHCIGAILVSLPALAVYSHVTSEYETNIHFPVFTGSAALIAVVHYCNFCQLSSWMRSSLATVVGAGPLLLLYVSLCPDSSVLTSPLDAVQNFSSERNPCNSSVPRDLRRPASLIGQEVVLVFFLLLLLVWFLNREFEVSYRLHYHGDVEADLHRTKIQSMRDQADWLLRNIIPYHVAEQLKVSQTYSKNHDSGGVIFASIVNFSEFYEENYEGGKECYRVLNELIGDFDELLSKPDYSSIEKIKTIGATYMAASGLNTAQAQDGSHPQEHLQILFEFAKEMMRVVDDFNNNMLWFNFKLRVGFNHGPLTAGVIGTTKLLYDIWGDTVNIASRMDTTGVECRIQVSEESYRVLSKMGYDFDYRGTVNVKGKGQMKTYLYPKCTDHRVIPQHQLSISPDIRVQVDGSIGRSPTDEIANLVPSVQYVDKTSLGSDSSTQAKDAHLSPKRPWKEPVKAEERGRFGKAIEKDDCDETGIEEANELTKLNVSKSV
Description: (§1) The WT coding sequence for the human AC9 gene is considered that of GenBank accession number DQ005545. With the adenine of the initiator codon being considered nucleotide 1, a polymorphism consisting of an […] which results in […] (accession number DQ008441) was previously described in Small et al, Pharmacogenetics, 13, 535-541, supra. The cDNAs for […] (also referred to as WT) and […] coding regions were generated from human lymphocyte RNA, subcloned into pCNDA3, and transfections of A431 cells carried out as described. Selection of positive clones was carried out in media containing 400 μg/ml G418. Expression of AC9 was determined in individual clonal lines by Western blots (see below). A431 cells were grown in monolayers in Dulbecco's modified Eagle's medium with 4 mM […] 10% fetal bovine serum, 100 U/ml penicillin and 100 μg/ml streptomycin, at 37° in a 5% CO2 atmosphere. In some studies, cells at 90% confluency in the absence of serum were treated with 500 nM dexamethasone for 12 hours and then utilized as described below. […] M et al., “Beta1-adrenergic receptor polymorphisms confer differential function and predisposition to heart failure” Nat. Med., 9, 1300-1305 (2003). […] [^32P] cAMP was separated from […] by chromatography over alumina columns. The [^3H] cAMP standard included in the stop buffer accounted for individual column recovery.

β2AR = assay: 125I-CYP radioligand binding for endogenous β2AR density in transfected A431 cells; type: cell-based
Description: The cDNAs for Ile772 (also referred to as WT) and Met772 coding regions were generated from human lymphocyte RNA, subcloned into pCNDA3, and transfections of A431 cells carried out as described. Selection of positive clones was carried out in media containing 400 μg/ml G418. Expression of AC9 was determined in individual clonal lines by Western blots (see below). A431 cells were grown in monolayers in Dulbecco's modified Eagle's medium with 4 mM L-glutamate 10% fetal bovine serum, 100 U/ml penicillin and 100 μg/ml streptomycin, at 37° in a 5% CO2 atmosphere. In some studies, cells at 90% confluency in the absence of serum were treated with 500 nM dexamethasone for 12 hours and then utilized as described below.
Transfected A431 cells were washed three times with phosphate-buffered saline (PBS), detached by scraping in 5 mM Tris, pH 7.4, 2 mM ethylenediaminetetracetic acid (EDTA) buffer, and centrifuged at 30,000 g for 10 min. […] Nonspecific binding was determined with 1 μM propranolol. […] AC9 expression in these transfected cell lines was assessed by quantitative immunoblotting so as to select lines expressing Ile772 or Met772 at the same levels for pharmacologic studies, and to ascertain if corticosteroid treatment altered expression. […] Relative levels of AC9 expression were subsequently determined using ScanAnalysis software (BioSoft, Cambridge, UK).

asthmatic children = assay: CAMP clinical cohort: bronchodilator response (FEV1) stratified by AC9 genotype; type: in vivo, human; settings: for Bronchodilator response at baseline: at randomization
Description: The study cohort consisted of pediatric patients who participated in the Childhood Asthma Management Program (CAMP). The study was a multicenter, randomized, trial comparing regularly scheduled inhalation treatment with the corticosteroid budesonide, the putative mast-cell “stabilizer” nedocromil, and placebo. The study design has been previously published in “Long-term effects of budesonide or nedocromil in children with asthma” N. Engl. J. Med., 343, 1054-1063 (2000). […] Once per year a methacholine challenge was performed to ascertain bronchial hyperresponsiveness. The current study utilized archived DNA from patients who participated in the CAMP DNA Ancillary Study. Because of potential population stratification issues (the allele frequency of Met772 is ˜0.30 in Caucasians and ˜0.15 in African Americans) and the small number of African American children enrolled in CAMP (14%), the current study was confined to Caucasian children. […] The analysis was focused then, on 436 children, with follow-up through 48 months, the last time point in which nearly complete measures were obtained for the cohort. The subjects' parents provided informed consent, and the study was approved by the Institutional Review Boards of each participating center.
The AC9 SNP at nucleotide 2316 was genotyped via a SEQUENOM MassARRAY MALDI-TOF mass spectrometer (Sequenom, San Diego, Calif.) for analysis of unlabeled single-base extension minisequencing reactions with a semiautomated primer design program (Spectro[…], Sequenom). […] To assess for possible population stratification, a random panel of 49 SNPs across the genome (“stratification SNPs”), obtained through the SNP Consortium (TSC) database was also genotyped. SNPs were chosen that are widely distributed throughout the genome and exclude promoters, genomic UTRs, exons, and introns of known genes.
Bronchodilator response is defined as FEV1 after bronchodilator minus FEV1 before bronchodilator divided by FEV1 before bronchodilator times 100 [(Post-FEV1−Pre-FEV1)/(Pre-FEV1)×100]. Longitudinal models of bronchodilator response, using repeated measures modeling with time as a linear effect and an unstructured covariance matrix, are used. These models evaluate change in bronchodilator response beginning at the 2 month follow-up visit, allowing for evaluation of change based on treatment type. Univariate and multivariable analyses adjusting for age, sex, and bronchodilator response at baseline are performed, under the assumption of a dominant model. To test for interaction between steroid treatment and Ile772Met genotypic status, treatment specific strata was evaluated and included interaction terms in the models. A “mean bronchodilator” response is also derived by taking all of the observations over the 4 years and dividing by the number of visits. This value was used as the primary outcome in the haplotypic assessment of interactions between the β2AR locus and the AC9 polymorphism.

WT (Ile772) AC9 = target: T2, WT (Ile772) AC9 (Homo sapiens, UniProt O60503); assay: Adenylyl cyclase activities in membranes of A431 cells transfected with WT (Ile772) AC9; type: biochemical; settings: for albuterol stimulated adenylyl cyclase activities: WT cells, 10 μM albuterol, N=5
T2 construct: expressed in transfected cells
T2 sequence (O60503 1-1353): T1 sequence (O60503 1-1353 I772M) with M772I
Description: as §1

[1] = after dexamethasone treatment (500 nM)

Compound: [Cl][Mn][Cl] [MnCl2]
- stimulated adenylyl cyclase activities of Met772 compared to WT (Met772 AC9): decreased compared to WT

Compound: [F-].[Na+] [NaF]
- stimulated adenylyl cyclase activities of Met772 compared to WT (Met772 AC9): decreased compared to WT

Compound: CCCC1O[C@@H]2C[C@H]3[C@@H]4CCC5=CC(=O)C=C[C@]5(C)[C@H]4[C@@H](O)C[C@]3(C)[C@]2(C(=O)CO)O1 (stereo partly drawn) [budesonide]
- increase in bronchodilation response of Met772 carriers compared to wild type (asthmatic children; on inhaled budesonide, univariate): ~2 percentage point

Continued, in another order:

- β2AR expression (β2AR; Met772 AC9 line after corticosteroid (dexamethasone) exposure, untreated 66±8.9): 109 ± 9.0 fmol/mg
- β2AR expression (β2AR; WT AC9 line after corticosteroid (dexamethasone) exposure, untreated 51±6.2): 103 ± 7.8 fmol/mg
Compound: C[C@@H]1C[C@H]2[C@@H]3CCC4=CC(=O)C=C[C@]4(C)[C@@]3(F)[C@@H](O)C[C@]2(C)[C@@]1(O)C(=O)CO [dexamethasone]

- albuterol stimulated adenylyl cyclase activities (WT (Ile772) AC9; [1]): 33 ± 2.5 pmol/min/mg
- albuterol stimulated adenylyl cyclase activities (WT (Ile772) AC9; before dexamethasone treatment): 27 ± 2.1 pmol/min/mg
- increase of albuterol-stimulated adenylyl cyclase response (WT (Ile772) AC9; cells expressing Ile772 cultured in the presence of glucocorticoid): ~20%
- albuterol stimulated adenylyl cyclase activities (Met772 AC9; [1]): 43 ± 3.4 pmol/min/mg
- albuterol stimulated adenylyl cyclase activities (Met772 AC9; before dexamethasone treatment): 24 ± 1.3 pmol/min/mg
- stimulated adenylyl cyclase activities of Met772 compared to WT (Met772 AC9): not different between the lines
Compound: CC(C)(C)NCC(O)c1ccc(O)c(CO)c1 (stereo not drawn) [albuterol]
- Bronchodilator response at baseline (asthmatic children; Met772 carriers): 11.17 ± 11.24
- average bronchodilator response (±SE), univariate (asthmatic children; Overall Cohort, Met772, 4 year follow-up): 9.23 ± 0.34%
- average bronchodilator response (±SE), multivariate (asthmatic children; Overall Cohort, Met772, adjusted for age, gender, inhaled steroid usage, baseline response, time): 6.17 ± 0.92%
- average bronchodilator response (±SE), univariate (asthmatic children; Overall Cohort, Wildtype, 4 year follow-up): 9.41 ± 0.48%
- average bronchodilator response (±SE), univariate (asthmatic children; Placebo Group (no inhaled steroid), Met772): 9.94 ± 0.61%
- average bronchodilator response (±SE), univariate (asthmatic children; Placebo Group (no inhaled steroid), Wildtype): 10.92 ± 0.79%
- average bronchodilator response (±SE), univariate (asthmatic children; Steroid Group (inhaled budesonide), Met772): 8.72±0.54%
- average bronchodilator response (±SE), multivariate (asthmatic children; Steroid Group (inhaled budesonide), Met772, adjusted): 5.78 ± 1.49%
- average bronchodilator response (±SE), univariate (asthmatic children; Steroid Group (inhaled budesonide), Wildtype): 6.76±0.69%
- Bronchodilator response at baseline (asthmatic children; WT patients): 10.32 ± 9.18
